17 molecules from patent EP4800012A1, “COMPOUND ACTING AS PARP7 INHIBITOR” (Dovetree Medicines Unus, Inc., priority 2023, dated 2025) can be followed below.

For assay [1], the target named is T1, PARP7 (Homo sapiens, UniProt Q7Z3E1).
T1 construct: purchased BPS 80527
T1 sequence (Q7Z3E1 1-657): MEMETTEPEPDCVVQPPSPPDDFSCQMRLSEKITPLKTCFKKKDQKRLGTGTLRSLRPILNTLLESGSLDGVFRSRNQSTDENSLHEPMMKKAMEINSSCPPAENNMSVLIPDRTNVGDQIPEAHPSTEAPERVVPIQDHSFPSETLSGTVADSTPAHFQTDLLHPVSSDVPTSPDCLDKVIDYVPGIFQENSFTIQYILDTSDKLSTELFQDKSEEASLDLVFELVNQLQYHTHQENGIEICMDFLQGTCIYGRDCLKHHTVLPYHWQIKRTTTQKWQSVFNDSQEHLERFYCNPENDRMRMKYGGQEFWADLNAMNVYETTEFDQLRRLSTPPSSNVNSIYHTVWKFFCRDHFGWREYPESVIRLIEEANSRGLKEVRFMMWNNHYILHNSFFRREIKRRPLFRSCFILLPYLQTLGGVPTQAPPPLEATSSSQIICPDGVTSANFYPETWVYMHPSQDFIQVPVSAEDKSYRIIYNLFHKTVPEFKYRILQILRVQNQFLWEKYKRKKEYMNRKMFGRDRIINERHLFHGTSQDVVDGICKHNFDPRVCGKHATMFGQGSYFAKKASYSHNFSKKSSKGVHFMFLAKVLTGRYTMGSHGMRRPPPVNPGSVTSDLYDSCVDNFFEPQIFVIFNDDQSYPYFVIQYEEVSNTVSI
The assay is described as follows: Inhibition of the compound on PARP7 protein activity (ADP-ribosylation, chemiluminescence). The class given is biochemical.

Another assay concerns NCI-H1373 cells. Description: Inhibition on NCI-H1373 cell proliferation (Cell-Titer-Glo). The class given is cell-based. As to conditions: Homo sapiens, 144 h; NCI-H1373 cells, incubation for 6 days, Cell-Titer-Glo; read-out: NCI-H1373 cell proliferation inhibition IC50.
Assay [2] addresses T1, PARP7. Description: PARP7 TR-FRET binding inhibition (displacement of probe RBN011147). Here is the method:
The ability of the compound to substitute the probe RBN011147 (Wigle et al., 2020, Cell Chemical Biology 27, 877-887) was tested by a TR-FRET method, and IC50 was calculated to evaluate the binding ability of the compound to PARP7. […]
(Time-resolved FRET reads energy transfer from a long-lived donor to a nearby acceptor.)

[3] abbreviates: Histone H1 coated plate, Biotin-Labeled NAD+, 2 h at room temperature, chemiluminescence; read-out: PARP7 activity inhibition IC50.
Setting [4] is: TR-FRET, Biotin-labeled probe RBN011147; read-out: PARP7 binding inhibition IC50.

Molecules are shown by their SMILES.

As to `CC(CCCNC(=O)c1ccc(-c2ncc(C(F)(F)F)s2)cc1F)Nc1cn[nH]c(=O)c1C(F)(F)F` (stereo not drawn) [Example 77], the IC50 is below 3 nM on PARP7 [1] (setting [3]), below 300 nM with NCI-H1373 cells and below 10 nM at PARP7 [2] (setting [4]).
Consider `CC(CCCNC(=O)c1ccc(-c2nc(C(F)(F)F)no2)cc1)Nc1cn[nH]c(=O)c1C(F)(F)F` (stereo not drawn) [Example 78], for which the IC50 is 3 to 10 nM at PARP7 [1] (setting [3]), above 3000 nM with NCI-H1373 cells and 10 to 30 nM at PARP7 [2] (setting [4]).
For `CC(CCCNC(=O)c1ccc(-c2cc(C(F)(F)F)on2)cc1)Nc1cn[nH]c(=O)c1C(F)(F)F` (stereo not drawn) [Example 79], the IC50 is 3 to 10 nM at PARP7 [1] (setting [3]), above 3000 nM in the assay on NCI-H1373 cells and below 10 nM at PARP7 [2] (setting [4]).
Turning to `CC(CCCNC(=O)c1ccc(-c2csc(C(F)(F)F)n2)cc1)Nc1cn[nH]c(=O)c1C(F)(F)F` (stereo not drawn) [Example 80], the IC50 at PARP7 [1] (setting [3]) is 10 to 30 nM; in the assay on NCI-H1373 cells, above 3000 nM; on PARP7 [2] (setting [4]) it was 30 to 100 nM.
With `CC(CCCNC(=O)c1ccc(-c2nc(C(F)(F)F)cs2)cc1)Nc1cn[nH]c(=O)c1C(F)(F)F` (stereo not drawn) [Example 81], the IC50 on PARP7 [1] (setting [3]) was 30 to 100 nM; in the assay with NCI-H1373 cells, above 3000 nM; on PARP7 [2] (setting [4]), 30 to 100 nM.
On to `CC(CCCNC(=O)c1ccc(-c2nnc(C(F)(F)F)s2)cc1)Nc1cn[nH]c(=O)c1C(F)(F)F` (stereo not drawn) [Example 82], for which the IC50 is 3 to 10 nM at PARP7 [1] (setting [3]), above 3000 nM in the assay with NCI-H1373 cells and 30 to 100 nM on PARP7 [2] (setting [4]).
Regarding `CC(CCCNC(=O)c1ncc(-c2ncc(C(F)(F)F)cn2)s1)Nc1cn[nH]c(=O)c1C(F)(F)F` (stereo not drawn) [Example 151], the IC50 was 3 to 10 nM on PARP7 [1] (setting [3]), above 3000 nM in the assay on NCI-H1373 cells and 30 to 100 nM on PARP7 [2] (setting [4]).
As to `CC(CCCNC(=O)c1ccc(-c2ncc(C3CCCC3)s2)cc1)Nc1cn[nH]c(=O)c1C(F)(F)F` (stereo not drawn) [Example 155], the figures for the IC50 at PARP7 [1] (setting [3]), in the assay with NCI-H1373 cells and at PARP7 [2] (setting [4]) were below 3 nM, 1000 to 3000 nM and 10 to 30 nM, respectively.
`O=C(NCCC[C@H]1CCN1c1cn[nH]c(=O)c1C(F)(F)F)c1cnc(-c2ncc(C(F)(F)F)cn2)cn1` [Example 164]: the IC50 was above 100 nM on PARP7 [1] (read-out: PARP7 activity inhibition IC50; Histone H1 coated plate, Biotin-Labeled NAD+, 2 h at room temperature, chemiluminescence); above 3000 nM with NCI-H1373 cells; above 100 nM at PARP7 [2] (read-out: PARP7 binding inhibition IC50; TR-FRET, Biotin-labeled probe RBN011147).
As to `CC(CCCNC(=O)c1cnc(-n2cc(C(F)(F)F)cn2)cn1)Nc1cn[nH]c(=O)c1C(F)(F)F` (stereo not drawn) [Example 175], the IC50 on PARP7 [1] (setting [3]) was below 3 nM; with NCI-H1373 cells, 300 to 1000 nM; at PARP7 [2] (setting [4]) it was 10 to 30 nM.
In the case of `CC(CCCNC(=O)c1ccc(-n2cc(C(F)(F)F)cn2)cc1F)Nc1cn[nH]c(=O)c1C(F)(F)F` (stereo not drawn) [Example 176], the IC50 at PARP7 [1] (setting [3]) was below 3 nM; in the assay on NCI-H1373 cells it was below 300 nM; at PARP7 [2] (setting [4]), below 10 nM.
With `CC(CCCNC(=O)c1ccc(-c2csc(C(F)(F)F)n2)nc1)Nc1cn[nH]c(=O)c1C(F)(F)F` (stereo not drawn) [Example 177], the IC50 is below 3 nM on PARP7 [1] (setting [3]), 1000 to 3000 nM in the assay with NCI-H1373 cells and below 10 nM at PARP7 [2] (setting [4]).
`CC(CCCNC(=O)c1cnc(-c2cscn2)c(F)c1)Nc1cn[nH]c(=O)c1C(F)(F)F` (stereo not drawn) [Example 178]: the IC50 on PARP7 [1] (setting [3]) was below 3 nM; in the assay with NCI-H1373 cells, above 3000 nM; on PARP7 [2] (setting [4]), 10 to 30 nM.
In the case of `CC(CCCNC(=O)c1ccc(-c2cscn2)cc1F)Nc1cn[nH]c(=O)c1C(F)(F)F` (stereo not drawn) [Example 179], the IC50 on PARP7 [1] (setting [3]) is below 3 nM; in the assay on NCI-H1373 cells, above 3000 nM; at PARP7 [2] (setting [4]), 10 to 30 nM.
The matching figures for `CC(CCCNC(=O)c1ncc(-c2cscn2)cc1F)Nc1cn[nH]c(=O)c1C(F)(F)F` (stereo not drawn) [Example 182]: 3 to 10 nM, above 3000 nM and 30 to 100 nM.
For the molecule `CC(CCCNC(=O)c1ncc(-n2cc(C(F)(F)F)cn2)cc1F)Nc1cn[nH]c(=O)c1C(F)(F)F` (stereo not drawn) [Example 183], the IC50 was below 3 nM on PARP7 [1] (setting [3]), 300 to 1000 nM with NCI-H1373 cells and below 10 nM on PARP7 [2] (setting [4]).
In the case of `CC(CCCNC(=O)c1cnc(-c2ncc(C(F)(F)F)s2)c(F)c1)Nc1cn[nH]c(=O)c1C(F)(F)F` (stereo not drawn) [Example 184], the IC50 at PARP7 [1] (setting [3]) is below 3 nM; in the assay with NCI-H1373 cells, 300 to 1000 nM; at PARP7 [2] (setting [4]) it was below 10 nM.
